Assay [1] deals with T1, human CYP11B1 (Homo sapiens, UniProt P15538).
T1 construct: expressed in transfected cells
T1 sequence (P15538 25-503): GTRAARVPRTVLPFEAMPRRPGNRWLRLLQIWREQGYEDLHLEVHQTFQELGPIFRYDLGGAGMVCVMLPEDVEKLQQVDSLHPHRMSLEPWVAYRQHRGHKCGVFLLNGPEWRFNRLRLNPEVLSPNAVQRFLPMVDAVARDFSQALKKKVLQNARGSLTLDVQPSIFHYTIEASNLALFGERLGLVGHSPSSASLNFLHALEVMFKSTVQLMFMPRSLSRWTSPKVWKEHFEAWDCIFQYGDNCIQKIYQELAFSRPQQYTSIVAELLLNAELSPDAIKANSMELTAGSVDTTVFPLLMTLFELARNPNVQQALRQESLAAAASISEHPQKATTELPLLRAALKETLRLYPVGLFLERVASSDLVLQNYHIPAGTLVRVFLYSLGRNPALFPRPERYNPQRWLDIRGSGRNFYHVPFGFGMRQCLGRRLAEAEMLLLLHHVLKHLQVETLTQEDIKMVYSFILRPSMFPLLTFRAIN
Kind of assay: Inhibition of hCYP11B1 in transfected V79 cells. The settings on record: hamster V79 cells expressing human CYP11B1; substrate 11-deoxycortisol 200 nM. Type of assay: cell-based. The procedure, abridged:
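V79 hamster cells stably expressing human CYP11B1 and rat NADPH-P450 reductase were preincubated with compounds for 2 h. 11-Deoxycortisol (200 nM) was then added as substrate for 30 min before ethyl acetate quench. Substrate and product were quantified by LC-MS/MS or HPLC at 260 nm, and IC50 was derived from percent inhibition.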

In assay [2] the target is T2, human CYP11B2 (Homo sapiens, UniProt P19099).
T2 construct: expressed in transfected cells
T2 sequence (P19099 25-503): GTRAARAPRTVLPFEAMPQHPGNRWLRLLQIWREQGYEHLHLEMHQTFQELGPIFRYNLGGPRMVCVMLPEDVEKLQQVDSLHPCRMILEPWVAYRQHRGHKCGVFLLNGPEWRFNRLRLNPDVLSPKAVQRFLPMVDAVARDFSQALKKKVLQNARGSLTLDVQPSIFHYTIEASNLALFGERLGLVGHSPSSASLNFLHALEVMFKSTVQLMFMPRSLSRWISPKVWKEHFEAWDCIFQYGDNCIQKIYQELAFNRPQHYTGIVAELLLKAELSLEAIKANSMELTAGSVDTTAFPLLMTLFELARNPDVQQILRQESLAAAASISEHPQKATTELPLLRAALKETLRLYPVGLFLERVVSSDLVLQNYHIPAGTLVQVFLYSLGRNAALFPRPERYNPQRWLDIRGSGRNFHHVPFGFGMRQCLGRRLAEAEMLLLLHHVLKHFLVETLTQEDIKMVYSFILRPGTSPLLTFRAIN
Kind of assay: Inhibition of hCYP11B2 in transfected V79 cells. Type of assay: cell-based. Conditions: hamster V79 cells expressing human CYP11B2; substrate 11-deoxycorticosterone 200 nM. An outline of the steps:
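Hamster V79 cells stably co-expressing human CYP11B2 and rat NADPH-P450 reductase were pre-incubated with compounds for 2 hours, then given 200 nM 11-deoxycorticosterone for 30 minutes before ethyl acetate quench. Substrate and product were quantified by LC-MS/MS or HPLC at 260 nm, and IC50 was derived from percent inhibition.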

This passage reports IC50 results from patent US20260092074A1, “Annelated Pyridines as Steroidogenesis Inhibitors, Preparation Method and Use Thereof” (Guangzhou Vinnocent Pharmaceutical Limited, priority 2022, published 2026).

Usually IC50 stands for the concentration that inhibits the measured activity by half.

With `N#Cc1ccc(-c2cncc3c2ccn3S(=O)(=O)c2cccc3ccccc23)cc1` [E15, 4-(1-(Naphthalen-1-ylsulfonyl)-1H-pyrrolo[2,3-c]pyridin-4-yl)benzonitrile], the IC50 was found to be 0.7 nM in assay [1] and 0.4 nM in assay [2].

Consider `N#Cc1ccc(-c2cncc3c2ccn3S(=O)(=O)c2ccc3ccccc3c2)cc1` [E16, 4-(1-(Naphthalen-2-ylsulfonyl)-1H-pyrrolo[2,3-c]pyridin-4-yl)benzonitrile], for which the results for the IC50 in assay [1] and in assay [2] were 0.6 nM and 0.1 nM, respectively.

On to `N#Cc1ccc(-c2cncc3c2ccn3S(=O)(=O)c2cccs2)cc1` [E17, 4-(1-(Thiophen-2-ylsulfonyl)-1H-pyrrolo[2,3-c]pyridin-4-yl)benzonitrile], for which the IC50 in assay [1] came to 0.7 nM; in assay [2], 0.1 nM.

With `N#Cc1ccc(-c2cncc3c2ccn3S(=O)(=O)c2ccc(Cl)nc2)cc1` [E18, 4-(1-((6-Chloropyridin-3-yl)sulfonyl)-1H-pyrrolo[2,3-c]pyridin-4-yl)benzonitrile], the figures for the IC50 in assay [1] and in assay [2] were 3.8 nM and 1.2 nM, respectively.

On to `N#Cc1ccc(-c2cncc3c2ccn3C(=O)c2c(F)c(F)c(F)c(F)c2F)cc1` [E19, 4-(1-(Perfluorobenzoyl)-1H-pyrrolo[2,3-c]pyridin-4-yl)benzonitrile], for which the IC50 in assay [1] is 2.9 nM; in assay [2] it was 2.5 nM.

For `N#Cc1ccc(-c2cncc3c2ccn3C(=O)c2ccc(C(F)(F)F)cc2)cc1` [E20, 4-(1-(4-(Trifluoromethyl)benzoyl)-1H-pyrrolo[2,3-c]pyridin-4-yl)benzonitrile], the IC50 was 65 nM in assay [1] and 0.8 nM in assay [2].

For `N#Cc1ccc(-c2cncc3c2ccn3C(=O)c2ccccc2I)cc1` [E21, 4-(1-(2-iodobenzoyl)-1H-pyrrolo[2,3-c]pyridin-4-yl)benzonitrile], the values for the IC50 in assay [1] and in assay [2] were 5 nM and 4 nM, respectively.

Regarding `N#Cc1ccc(-c2cncc3c2ccn3C(=O)c2cccc([N+](=O)[O-])c2)cc1` [E22, 4-(1-(3-Nitrobenzoyl)-1H-pyrrolo[2,3-c]pyridin-4-yl)benzonitrile], the IC50 in assay [1] amounted to 21 nM; in assay [2], 0.6 nM.

As to `N#Cc1ccc(-c2cncc3c2ccn3C(=O)c2cccc(C(F)(F)F)c2)cc1` [E23, 4-(1-(3-(Trifluoromethyl)benzoyl)-1H-pyrrolo[2,3-c]pyridin-4-yl)benzonitrile], the IC50 in assay [1] came out at 79 nM; in assay [2], 0.8 nM.

Take `COc1cccc(C(=O)n2ccc3c(-c4ccc(C#N)cc4)cncc32)c1` [E24, 4-(1-(3-Methoxybenzoyl)-1H-pyrrolo[2,3-c]pyridin-4-yl)benzonitrile]: the IC50 was found to be 82 nM in assay [1] and 1.9 nM in assay [2].

In the case of `COc1ccccc1C(=O)n1ccc2c(-c3ccc(C#N)cc3)cncc21` [E25, 4-(1-(2-Methoxybenzoyl)-1H-pyrrolo[2,3-c]pyridin-4-yl)benzonitrile], the concentration for half-maximal inhibition (IC50) came to 98 nM in assay [1] and 2.1 nM in assay [2].

Consider `N#Cc1ccc(-c2cncc3c2ccn3C(=O)c2ccccc2C(F)(F)F)cc1` [E26, 4-(1-(2-(Trifluoromethyl)benzoyl)-1H-pyrrolo[2,3-c]pyridin-4-yl)benzonitrile], for which the IC50 is 88 nM in assay [1] and 3.9 nM in assay [2].

Consider `Cc1ccccc1C(=O)n1ccc2c(-c3ccc(C#N)cc3)cncc21` [E27, 4-(1-(2-Methylbenzoyl)-1H-pyrrolo[2,3-c]pyridin-4-yl)benzonitrile], for which the IC50 in assay [1] is 73 nM; in assay [2], 1.5 nM.

Turning to `N#Cc1ccc(-c2cncc3c2ccn3C(=O)c2ccccc2F)cc1` [E28, 4-(1-(2-Fluorobenzoyl)-1H-pyrrolo[2,3-c]pyridin-4-yl)benzonitrile], the IC50 in assay [1] was determined as 17 nM; in assay [2] it was 2.1 nM.

In the case of `N#Cc1ccc(-c2cncc3c2ccn3C(=O)c2ccccc2[N+](=O)[O-])cc1` [E29, 4-(1-(2-Nitrobenzoyl)-1H-pyrrolo[2,3-c]pyridin-4-yl)benzonitrile], the values for the IC50 in assay [1] and in assay [2] were 9 nM and 2.5 nM, respectively.

With `N#Cc1ccc(-c2cncc3c2ccn3C(=O)c2ccc(F)cc2)cc1` [E30, 4-(1-(4-Fluorobenzoyl)-1H-pyrrolo[2,3-c]pyridin-4-yl)benzonitrile], the IC50 in assay [1] is 11 nM; in assay [2], 0.1 nM.

`O=C(c1ccc(F)cc1)n1ccc2c(-c3cc4ccccc4s3)cncc21` [E31, (4-(Benzo[b]thiophen-2-yl)-1H-pyrrolo[2,3-c]pyridin-1-yl)(4-fluorophenyl)methanone]: the values for the IC50 in assay [1] and in assay [2] were 635 nM and 10 nM, respectively.

Take `O=C(c1ccc(F)cc1)n1ccc2c(-c3cc4ccccc4o3)cncc21` [E32, (4-(Benzofuran-2-yl)-1H-pyrrolo[2,3-c]pyridin-1-yl)(4-fluorophenyl)methanone]: the IC50 in assay [1] stood at 269 nM; in assay [2] it was 13 nM.

As to `O=C(c1ccc(F)cc1)n1ccc2c(-c3ccc4occc4c3)cncc21` [E33, (4-(Benzofuran-5-yl)-1H-pyrrolo[2,3-c]pyridin-1-yl)(4-fluorophenyl)methanone], the results for the IC50 in assay [1] and in assay [2] were 673 nM and 32 nM, respectively.

With `O=C(c1ccc(F)cc1)n1ccc2c(-c3cc4ccccc4[nH]3)cncc21` [E34, (4-(1H-Indol-2-yl)-1H-pyrrolo[2,3-c]pyridin-1-yl)(4-fluorophenyl)methanone], the IC50 amounted to 375 nM in assay [1] and 5 nM in assay [2].

For the molecule `Cn1ncc2ccc(-c3cncc4c3ccn4C(=O)c3ccc(F)cc3)cc21` [E35, (4-Fluorophenyl)(4-(1-methyl-1H-indazol-6-yl)-1H-pyrrolo[2,3-c]pyridin-1-yl)methanone], the figures for the IC50 in assay [1] and in assay [2] were 857 nM and 17 nM, respectively.

Turning to `O=C(c1ccc(F)cc1)n1ccc2c(-c3ccc4ncsc4c3)cncc21` [E36, (4-(Benzo[d]thiazol-6-yl)-1H-pyrrolo[2,3-c]pyridin-1-yl)(4-fluorophenyl)methanone], the IC50 in assay [1] was found to be 1980 nM; in assay [2], 29 nM.

Regarding `O=C(c1ccc(F)cc1)n1ccc2c(-c3ccc4nccn4c3)cncc21` [E37, (4-Fluorophenyl)(4-(imidazo[1,2-a]pyridin-6-yl)-1H-pyrrolo[2,3-c]pyridin-1-yl)methanone], the IC50 in assay [1] stood at 455 nM; in assay [2], 0.6 nM.

Regarding `O=C(c1ccc(F)cc1)n1ccc2c(-c3ccc4ncoc4c3)cncc21` [E38, (4-(Benzo[d]oxazol-6-yl)-1H-pyrrolo[2,3-c]pyridin-1-yl)(4-fluorophenyl)methanone], the IC50 in assay [1] was 49 nM; in assay [2] it was 8 nM.

As to `O=C(c1ccc(F)cc1)n1ccc2c(-c3ccn4ccnc4c3)cncc21` [E39, (4-Fluorophenyl)(4-(imidazo[1,2-a]pyridin-7-yl)-1H-pyrrolo[2,3-c]pyridin-1-yl)methanone], the IC50 was 678 nM in assay [1] and 12 nM in assay [2].

In the case of `Cn1c(=O)c(=O)[nH]c2cncc(-c3ccc(C#N)cc3)c21` [N1, 4-(1-Methyl-2,3-dioxo-1,2,3,4-tetrahydropyrido[3,4-b]pyrazin-8-yl)benzonitrile], the figures for the IC50 in assay [1] and in assay [2] were 409 nM and 372 nM, respectively.

Consider `Cn1c(=O)c(=O)[nH]c2cncc(-c3ccc(F)cc3)c21` [N2, 8-(4-Fluorophenyl)-1-methyl-1,4-dihydropyrido[3,4-b]pyrazine-2,3-dione], for which the IC50 in assay [1] turned out to be 746 nM; in assay [2] it was 593 nM.

For the molecule `CN1CCNc2cncc(-c3ccc(C#N)cc3)c21` [N3, 4-(1-Methyl-1,2,3,4-tetrahydropyrido[3,4-b]pyrazin-8-yl)benzonitrile], the figures for the IC50 in assay [1] and in assay [2] were 394 nM and 311 nM, respectively.

Turning to `CN1CCN(S(=O)(=O)c2ccc(C#N)cc2)c2cncc(-c3ccc(C#N)cc3)c21` [N4, 4-((8-(4-Cyanophenyl)-1-methyl-2,3-dihydropyrido[3,4-b]pyrazin-4 (1H)-yl)sulfonyl)benzonitrile], the figures for the IC50 in assay [1] and in assay [2] were 5.2 nM and 0.6 nM, respectively.

On to `CN1CCN(C(=O)c2ccc(F)cc2)c2cncc(-c3ccc(C#N)cc3)c21` [N5, 4-(4-(4-Fluorobenzoyl)-1-methyl-1,2,3,4-tetrahydropyrido[3,4-b]pyrazin-8-yl)benzonitrile], for which the IC50 was determined as 48 nM in assay [1] and 7.8 nM in assay [2].
